Assays:
[1] = molecular target: Cholinesterase (Homo sapiens) (UniProt P06276); experiment: Specificity to butyrylcholinesterase
[2] = Partition coefficient (logD) (octanol/phosphate buffer); type: physicochemical
[3] = Partition coefficient (logD); type: physicochemical; details: octanol/water
Homo sapiens = species: Homo sapiens; experiment: The estimated hydrolysis rate in the human cerebral cortex; type: functional

Sequence of Cholinesterase (Homo sapiens) (P06276 whole entry): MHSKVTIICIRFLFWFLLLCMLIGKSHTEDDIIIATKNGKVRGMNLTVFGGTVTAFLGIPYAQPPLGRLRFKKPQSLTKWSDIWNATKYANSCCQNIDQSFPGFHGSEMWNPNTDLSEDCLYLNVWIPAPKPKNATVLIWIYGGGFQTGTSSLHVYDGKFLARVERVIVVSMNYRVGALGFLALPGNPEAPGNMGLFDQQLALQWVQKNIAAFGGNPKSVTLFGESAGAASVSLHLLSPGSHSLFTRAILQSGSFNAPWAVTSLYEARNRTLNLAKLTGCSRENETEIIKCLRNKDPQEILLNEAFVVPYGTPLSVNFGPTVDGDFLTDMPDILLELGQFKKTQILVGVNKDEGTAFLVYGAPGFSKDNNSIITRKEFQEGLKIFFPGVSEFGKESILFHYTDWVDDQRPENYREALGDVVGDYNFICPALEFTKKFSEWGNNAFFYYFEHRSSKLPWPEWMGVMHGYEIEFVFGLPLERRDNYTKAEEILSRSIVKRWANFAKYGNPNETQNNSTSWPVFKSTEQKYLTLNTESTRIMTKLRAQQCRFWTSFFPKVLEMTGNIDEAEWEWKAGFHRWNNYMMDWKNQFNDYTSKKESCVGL

Row | Compound | Specificity [1] [%] | logD [2] | logD [3] | Total rate (Homo sapiens) [g⁻¹ min⁻¹ mL⁻¹]
1 | CCCC(=O)OCC1CCN(CCF)CC1 | 98 | -1.3 | 0.62 | 0.2
2 | CCCC(=O)OC1CCN(C)CC1 | 98 | -2.2 | 0.21 | 0.033
3 | CCC(=O)OC1CCN(C)CC1 |  | -2.2 | -0.22 | 0.035
4 | CC(=O)OC1CCN(C)CC1 |  | -2.2 | -0.3 | 0.16

Reference: ChEMBL document CHEMBL1147519, “N-[18F]fluoroethylpiperidin-4-ylmethyl butyrate: a novel radiotracer for quantifying brain butyrylcholinesterase activity by positron emission tomography” (Bioorg Med Chem Lett, 2004)
